Like-named read-outs stand apart in the source and are kept apart here.
How the values were obtained:
[1] = rofecoxib-treated arm compared with naproxen; cited from earlier work
[2] = system: clotting; details: cited from earlier work
[3] = system: clotting native whole blood; details: for Ratio of Post-treatment to Pre-treatment Value of Logistic Parameter B: two hours after ingestion, same subject

Compound: CS(=O)(=O)c1ccc(C2=C(c3ccccc3)C(=O)OC2)cc1 [rofecoxib]
- Incidence of thrombotic events [1]: higher incidence of thrombotic events
- Effect on clotting as measured by routine techniques [2]: Neither rofecoxib nor celecoxib has any effect on clotting

Compound: COc1ccc2cc([C@H](C)C(=O)O)ccc2c1 [Naproxen]
- Ratio of Post-treatment to Pre-treatment Value of Logistic Parameter B ([3]; 470 nm, Naproxen 600 mg single dose): 1.63
- Ratio of Post-treatment to Pre-treatment Value of Logistic Parameter B ([3]; 550 nm, Naproxen 600 mg single dose): 0.03
- Ratio of Post-treatment to Pre-treatment Value of Logistic Parameter B ([3]; 610 nm, Naproxen 600 mg single dose): 0.34
- Ratio of Post-treatment to Pre-treatment Value of Logistic Parameter B ([3]; 700 nm, Naproxen 600 mg single dose): 0.28
- Effect on clotting as determined by the invention, in words ([3]; at 470 nm): aspirin-like effect
- Effect on clotting as determined by the invention, in words ([3]; at the other wavelengths (550, 610, 700 nm)): celecoxib-like effect

Compound: Cc1ccc(-c2cc(C(F)(F)F)nn2-c2ccc(S(N)(=O)=O)cc2)cc1 [Celecoxib]
- Ratio of Post-treatment to Pre-treatment Value of Logistic Parameter B ([3]; 470 nm, Celecoxib 400 mg single dose): 0.087
- Ratio of Post-treatment to Pre-treatment Value of Logistic Parameter B ([3]; 550 nm, Celecoxib 400 mg single dose): 0.154
- Ratio of Post-treatment to Pre-treatment Value of Logistic Parameter B ([3]; 610 nm, Celecoxib 400 mg single dose): 0.055
- Ratio of Post-treatment to Pre-treatment Value of Logistic Parameter B ([3]; 700 nm, Celecoxib 400 mg single dose): 0.107

Compound: CC(=O)Oc1ccccc1C(=O)O [Aspirin]
- Ratio of Post-treatment to Pre-treatment Value of Logistic Parameter B ([3]; 470 nm, Aspirin 325 mg single dose): 4.48
- Ratio of Post-treatment to Pre-treatment Value of Logistic Parameter B ([3]; 550 nm, Aspirin 325 mg single dose): 1.45
- Ratio of Post-treatment to Pre-treatment Value of Logistic Parameter B ([3]; 610 nm, Aspirin 325 mg single dose): 2.18
- Ratio of Post-treatment to Pre-treatment Value of Logistic Parameter B ([3]; 700 nm, Aspirin 325 mg single dose): 1.85

— patent US7126676B2, “Spectral analysis of light scattered from clotting blood” (priority 2002, dated 2006)
